Assay results published in ChEMBL document CHEMBL6177971, “Iterative Optimization Yields Stapled Peptides with Superior Pharmacokinetics and Potency for Renal Fibrosis Treatment” (J Med Chem, 2025).
The source made the active and inactive calls. The rule behind the calls is not given here.

Legend:
NIH3T3 [1] = assay: Inhibition of myofibroblast activation in TGF-beta1-induced EMT in mouse NIH3T3 cells assessed as decrease in fibronectin mRNA level at 1 to 2 uM incubated for 48 hrs by qPCR analysis; type: functional, cell-based; conditions: dose 1-2 µM
NIH3T3 [2] = assay: Inhibition of myofibroblast activation in TGF-beta1-induced EMT in mouse NIH3T3 cells assessed as decrease in collagen I level at 1 to 2 uM incubated for 48 hrs by Western blot analysis; type: functional, cell-based; conditions: dose 1-2 µM
NIH3T3 [3] = assay: Inhibition of myofibroblast activation in TGF-beta1-induced EMT in mouse NIH3T3 cells assessed as decrease in vimentin level at 1 to 2 uM incubated for 48 hrs by Western blot analysis; type: functional, cell-based; conditions: dose 1-2 µM
NIH3T3 [4] = assay: Inhibition of TGF-beta1-induced EMT in mouse NIH3T3 cells assessed as decrease in fibronectin level at 10 uM incubated for 48 hrs by Western blot analysis; type: functional, cell-based
Mus musculus [5] = assay: Anti-fibrotic activity in C57BL/6J mouse model of unilateral ureteral obstruction assessed as decrease in TGF-beta1 mRNA level at 0.25 mg/kg, ip administered every day for 7 days by qPCR analysis; type: functional, organism-based; conditions: time 7.0 day
[6] = Half life of compound; type: physicochemical
NIH3T3 [7] = assay: Inhibition of myofibroblast activation in TGF-beta1-induced EMT in mouse NIH3T3 cells assessed as decrease in fibronectin level incubated for 48 hrs by Western blot analysis; type: functional, cell-based; conditions: dose 1-10 µM
NIH3T3 [8] = assay: Inhibition of myofibroblast activation in TGF-beta1-induced EMT in mouse NIH3T3 cells assessed as decrease in collagen I mRNA level at 1 to 2 uM incubated for 48 hrs by qPCR analysis; type: functional, cell-based; conditions: dose 1-2 µM
HK-2 [9] = assay: Inhibition of myofibroblast activation in TGF-beta1-induced EMT in human HK-2 cells assessed as decrease in MMP-2 level at 1 to 5 uM incubated for 24 hrs by Western blot analysis; type: functional, cell-based; conditions: dose 1-5 µM
Mus musculus [10] = assay: Anti-fibrotic activity in C57BL/6J mouse model of unilateral ureteral obstruction assessed as decrease in renal fibronectin […] level administered intraperitoneally every day for 7 days by IHC analysis; type: functional, organism-based; conditions: dose 0.05-1.25 mg/kg, route ip, time 7.0 day
Mus musculus [11] = assay: Anti-fibrotic activity in C57BL/6J mouse model of unilateral ureteral obstruction assessed as decrease in fibronectin mRNA level at 0.25 mg/kg, ip administered every day for 7 days by qPCR analysis; type: functional, organism-based; conditions: time 7.0 day
[12] = MRT in male C57BL/6J mouse at 2.8 mg/kg, iv measured for 3 to 240 mins by UHPLC-HRMS analysis; type: ADME, organism-based; conditions: in vivo, time 3-240 min
NIH3T3 [13] = assay: Inhibition of myofibroblast activation in TGF-beta1-induced EMT in mouse NIH3T3 cells assessed as decrease in MMP2 mRNA level at 1 to 2 uM incubated for 48 hrs by qPCR analysis; type: functional, cell-based; conditions: dose 1-2 µM
NIH3T3 [14] = assay: Inhibition of TGF-beta1-induced EMT in mouse NIH3T3 cells assessed as decrease in alpha-SMA level at 10 uM incubated for 48 hrs by Western blot analysis; type: functional, cell-based
Mus musculus [15] = assay: Anti-fibrotic activity in C57BL/6J mouse model of unilateral ureteral obstruction assessed as decrease in alpha-SMA level at 0.25 mg/kg, ip administered every day for 7 days by Western blot analysis; type: functional, organism-based; conditions: time 7.0 day
HK-2 [16] = assay: Inhibition of myofibroblast activation in TGF-beta1-induced EMT in human HK-2 cells assessed as decrease in alpha-SMA level at 1 to 10 uM incubated for 24 hrs by Western blot analysis; type: functional, cell-based; conditions: dose 1-10 µM
HK-2 [17] = assay: Inhibition of myofibroblast activation in TGF-beta1-induced EMT in human HK-2 cells assessed as decrease in vimentin level at 1 to 5 uM incubated for 24 hrs by Western blot analysis; type: functional, cell-based; conditions: dose 1-5 µM
Mus musculus [18] = assay: Anti-fibrotic activity in C57BL/6J mouse model of unilateral ureteral obstruction assessed as decrease in kidney edema at 0.05 to 1.25 mg/kg, ip administered every day for 7 days; type: functional, organism-based; conditions: dose 0.05-1.25 mg/kg, time 7.0 day
HK-2 [19] = assay: Inhibition of myofibroblast activation in TGF-beta1-induced EMT in human HK-2 cells assessed as decrease in COL1A1 mRNA level at 1 to 5 uM incubated for 24 hrs by qPCR analysis; type: functional, cell-based; conditions: dose 1-5 µM
Mus musculus [20] = assay: Anti-fibrotic activity in C57BL/6J mouse model of unilateral ureteral obstruction assessed as decrease in alpha-SMA mRNA level at 0.25 mg/kg, ip administered every day for 7 days by qPCR analysis; type: functional, organism-based; conditions: time 7.0 day
Mus musculus [21] = assay: Anti-fibrotic activity in C57BL/6J mouse model of unilateral ureteral obstruction assessed as decrease in kidney fibrosis at 0.05 to 1.25 mg/kg, ip administered every day for 7 days; type: functional, organism-based; conditions: dose 0.05-1.25 mg/kg, time 7.0 day
HK-2 [22] = assay: Inhibition of myofibroblast activation in TGF-beta1-induced EMT in human HK-2 cells assessed as increase in CDH-1 mRNA level at 1 to 5 uM incubated for 24 hrs by qPCR analysis; type: functional, cell-based; conditions: dose 1-5 µM
HK-2 [23] = assay: Inhibition of myofibroblast activation in TGF-beta1-induced EMT in human HK-2 cells assessed as decrease in VIM mRNA level at 1 to 5 uM incubated for 24 hrs by qPCR analysis; type: functional, cell-based; conditions: dose 1-5 µM
HK-2 [24] = assay: Inhibition of myofibroblast activation in TGF-beta1-induced EMT in human HK-2 cells assessed as increase in E-cadherin level at 1 to 5 uM incubated for 24 hrs by Western blot analysis; type: functional, cell-based; conditions: dose 1-5 µM

CCCCCCCCCCCC(=O)N[C@H](CC(=O)O)C(=O)N[C@@H](Cc1c[nH]cn1)C(=O)N[C@@H](CC(N)=O)C(=O)N[C@H]1CSCCCCCCSC[C@@H](C(N)=O)NC(=O)[C@@H](C)NC(=O)[C@H](CCC(N)=O)NC(=O)[C@@H]2CCCN2C1=O
inhibition (NIH3T3 [1]): Active | inhibition (NIH3T3 [2]): Active | inhibition (NIH3T3 [3]): Active | inhibition (NIH3T3 [4]): Active | Activity (Mus musculus [5]): Active | half-life [6]: 27 h | inhibition (NIH3T3 [7]): Active; No Further Enhancement In Antifibrotic Activity Was Observed At Concentrations Above 2 Î¼M | inhibition (NIH3T3 [8]): Active | inhibition (HK-2 [9]): Active | Activity (Mus musculus [10]): Dose-dependent-effect | Activity (Mus musculus [11]): Active | MRT [12]: 0.337 h | inhibition (NIH3T3 [13]): Active | inhibition (NIH3T3 [14]): Active | Activity (Mus musculus [15]): Active | inhibition (HK-2 [16]): Active; No Additional Suppression Observed At Concentrations Above 5 Î¼M | inhibition (HK-2 [17]): Active | Activity (Mus musculus [18]): Active | inhibition (HK-2 [19]): Active | Activity (Mus musculus [20]): Active | Activity (Mus musculus [21]): Active | inhibition (HK-2 [22]): Active | inhibition (HK-2 [23]): Active | inhibition (HK-2 [24]): Active
